Reference: patent US10821115B2, “Compounds that inhibit Mcl-1 protein” (priority 2017, dated 2020)
pIC50: −log10 of the molar value. Like-named read-outs stand apart in the source and are kept apart here.

How the values were obtained:
[1] = biological target: recombinant human Mcl-1 (residues 171-327) / Bim interaction (Homo sapiens (Human), UniProt Q07820); assay: biochemical; format: binding; settings: read-out: Mcl-1 HTRF IC50
Method: The inhibition of the Mcl-1/Bim interaction was measured using a time-resolved fluorescence resonance energy transfer (TR-FRET) assay. […] The TR-FRET assay was conducted in a 384-well white OptiPlate™ (PerkinElmer, Waltham, Mass.) in a total volume of 40 μL. The reaction mixture contained 0.1 nM Mcl-1(171-327), 0.05 nM biotin-Bim (51-76), 0.05 nM LANCE® Eu-W1024 Anti-6×His (PerkinElmer), 0.072 nM Streptavidin-Xlent (Cisbio, Bedford, Mass.), and serially diluted test compounds in the binding buffer of 20 mM Hepes, pH 7.5, 150 mM NaCl, 0.016 mM Brij®35, and 1 mM dithiothreitol. Test compounds were pre-incubated with Mcl-1(171-327) and biotin-Bim (51-76) for 60 min before addition of the detection mixture (LANCE® Eu-W1024 Anti-6×His and Streptavidin-Xlent). The reaction plates were further incubated overnight and then were read on an Envision® multimode reader (PerkinElmer). Fluorescence signals were measured at 620 nm (40-nm bandwidth) and 665 nm (7.5-nm bandwidth) with a 60 is delay after excitation at 320 nm (75-nm bandwidth). The signal ratio at 665/620 nm corresponded to the Mcl-1/Bim interaction and was used in all data analyses. The IC50 values of test compounds were determined from duplicate data by analyzing competition curves using a four-parameter sigmoidal model in GraphPad Prism (GraphPad Software, San Diego, Calif.) or in Genedata Screener® (Genedata, Basel, Switzerland).

[2] = tested on: human multiple myeloma cell line, OPM-2; assay: Cell viability assay (OPM-2 10 FBS), CellTiter-Glo; format: cell-based
Procedure, shortened: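 OPM-2 cells at 3000 cells/well in RPMI 1640 with 10% FBS were exposed to serially diluted compounds for 16 h at 37 °C, 5% CO2.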

[3] = TR-FRET, Mcl-1(171-327) / biotin-Bim (51-76)
[4] = Homo sapiens, OPM-2, 16 h, read-out: OPM-2 10% FBS IC50 IP, OPM-2 cells, 10% FBS, 16 h, CellTiter-Glo
[5] = read-out: OPM-2 10% FBS IC50 IP, OPM-2 cells, 10% FBS, 16 h, CellTiter-Glo
[6] = 0.1 nM Mcl-1(171-327), 0.05 nM biotin-Bim (51-76)
[7] = Homo sapiens, OPM-2, 16 h, read-out: OPM-2 10% FBS IC50 IP, OPM-2 cells, 10% FBS, 16 h incubation

Chain of recombinant human Mcl-1 (residues 171-327) / Bim interaction (Q07820 171-327): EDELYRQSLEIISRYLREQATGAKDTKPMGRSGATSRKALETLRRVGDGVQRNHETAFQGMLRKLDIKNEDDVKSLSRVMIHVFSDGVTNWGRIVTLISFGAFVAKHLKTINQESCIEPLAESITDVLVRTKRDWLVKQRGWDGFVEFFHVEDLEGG

Row | SMILES | pIC50 [1, 3] | pIC50 [2, 4] | pIC50 [2, 5] | pIC50 [1, 6] | pIC50 [2, 7]
1 | CC(C)C[C@@]1(O)/C=C/C[C@H](C)[C@@H](C)S(=O)(=O)NC(=O)c2ccc3c(c2)N(C[C@@H]2CC[C@H]21)C[C@@]1(CCCc2cc(Cl)ccc21)CO3 [Example 100220, (1S,3′R,6′R,7′R,8′E,11′S,12′R)-6-chloro-7′-hydroxy-11′,12′-dimethyl-7′-(2-methylpropyl)-3,4-dihydro-2H,15′H-spiro[naphthalene-1,22′-[20]oxa[13]thia[1,14]diazatetracyclo [14.7.2.0~3,6~.0~19,24~]pentacosa[8,16,18,24]tetraen]-15′-one 13′,13′-dioxide] | 8.13 | 5.16 |  |  | 
2 | CO[C@@]1(Cc2ncccc2C)/C=C/C[C@H](C)[C@@H](C)S(=O)(=O)NC(=O)c2ccc3c(c2)N(C[C@@H]2CC[C@H]21)C[C@@]1(CCCc2cc(Cl)ccc21)CO3 [Example 100542, (1S,3′R,6′R,7′S,8′E,11′S,12′R)-6-chloro-7′-methoxy-11′,12′-dimethyl-7′-((3-methyl-2-pyridinyl)methyl)-3,4-dihydro-2H,15′H-spiro[naphthalene-1,22′-[20]oxa[13]thia[1,14]diazatetracyclo [14.7.2.0~3,6~.0~19,24~]pentacosa[8,16,18,24]tetraen]-15′-one 13′,13′-dioxide] | 9.64 | 6.04 |  |  | 
3 | CCOP(=O)(OCC)C(F)(F)[C@]1(O)/C=C/C[C@H](C)[C@@H](C)S(=O)(=O)NC(=O)c2ccc3c(c2)N(C[C@@H]2CC[C@H]21)C[C@@]1(CCCc2cc(Cl)ccc21)CO3 [Example 100067, diethyl (((1S,3′R,6′R,7′S,8′E,11′S,12′R)-6-chloro-7′-hydroxy-11′,12′-dimethyl-13′,13′-dioxido-15′-oxo-3,4-dihydro-2H-spiro[naphthalene-1,22′-[20]oxa[13]thia[1,14]diazatetracyclo [14.7.2.0~3,6~.0~19,24~]pentacosa[8,16,18,24]tetraen]-7′-yl)(difluoro)methyl)phosphonate] | 9.00 |  | 6.57 |  | 
4 | C#C[C@]1(O)/C=C/C[C@H](C)[C@@H](C)S(=O)(=O)NC(=O)c2ccc3c(c2)N(C[C@@H]2CC[C@H]21)C[C@@]1(CCCc2cc(Cl)ccc21)CO3 [Example 100244, (1S,3′R,6′R,7′S,8′E,11′S,12′R)-6-chloro-7′-ethynyl-7′-hydroxy-11′,12′-dimethyl-3,4-dihydro-2H,15′H-spiro[naphthalene-1,22′-[20]oxa[13]thia[1,14]diazatetracyclo [14.7.2.0~3,6~.0~19,24~]pentacosa[8,16,18,24]tetraen]-15′-one 13′,13′-dioxide] | 9.74 | 7.31 |  |  | 
5 | CCOC[C@@]1(O)CCC[C@H](C)[C@@H](C)S(=O)(=O)NC(=O)c2ccc3c(c2)N(C[C@@H]2CC[C@H]21)C[C@@]1(CCCc2cc(Cl)ccc21)CO3 [Example 100190, (1S,3′R,6′R,7′R,11′S,12′R)-6-chloro-7′-(ethoxymethyl)-7′-hydroxy-11′,12′-dimethyl-3,4-dihydro-2H,15′H-spiro[naphthalene-1,22′-[20]oxa[13]thia[1,14]diazatetracyclo [14.7.2.0~3,6~.0~19,24~]pentacosa[16,18,24]trien]-15′-one 13′,13′-dioxide] | 8.32 | 5.61 |  |  | 
6 | C[C@@H]1[C@@H](C)CCC[C@]2(OCCS2)[C@@H]2CC[C@H]2CN2C[C@@]3(CCCc4cc(Cl)ccc43)COc3ccc(cc32)C(=O)NS1(=O)=O (single isomer, unassigned) [Example 100116] | 8.42 | 5.23 |  |  | 
7 | CO[C@@]1(CN2CCN(C3COCCOC3)CC2)/C=C/C[C@H](C)[C@@H](C)S(=O)(=O)NC(=O)c2ccc3c(c2)N(C[C@@H]2CC[C@H]21)C[C@@]1(CCCc2cc(Cl)ccc21)CO3 [Example 340, (1S,3′R,6′R,7′S,8′E,11′S,12′R)-6-chloro-7′-((4-(1,4-dioxepan-6-yl)-1-piperazinyl)methyl)-7′-methoxy-11′,12′-dimethyl-3,4-dihydro-2H,15′H-spiro[naphthalene-1,22′-[20]oxa[13]thia[1,14]diazatetracyclo [14.7.2.0~3,6~.0~19,24~]pentacosa[8,16,18,24]tetraen]-15′-one 13′,13′-dioxide] |  |  |  | 9.89 | 7.22
8 | C[C@@H]1[C@@H](C)C/C=C/[C@@](O)(CC(=O)OCC2(C)COC2)[C@@H]2CC[C@H]2CN2C[C@@]3(CCCc4cc(Cl)ccc43)COc3ccc(cc32)C(=O)NS1(=O)=O [Example 100299, (3-methyl-3-oxetanyl)methyl ((1S,3′R,6′R,7′S,8′E,11′S,12′R)-6-chloro-7′-hydroxy-11′,12′-dimethyl-13′,13′-dioxido-15′-oxo-3,4-dihydro-2H-spiro[naphthalene-1,22′-[20]oxa[13]thia[1,14]diazatetracyclo [14.7.2.0~3,6~.0~19,24~]pentacosa[8,16,18,24]tetraen]-7′-yl)acetate] | 9.46 | 6.21 |  |  | 
9 | CO[C@@]1(CCN2CCN(C)C(=O)C2)/C=C/C[C@H](C)[C@@H](C)S(=O)(=O)NC(=O)c2ccc3c(c2)N(C[C@@H]2CC[C@H]21)C[C@@]1(CCCc2cc(Cl)ccc21)CO3 [Example 100430, (1S,3′R,6′R,7′S,8′E,11′S,12′R)-6-chloro-7′-methoxy-11′,12′-dimethyl-7′-(2-(4-methyl-3-oxo-1-piperazinyl)ethyl)-3,4-dihydro-2H,15′H-spiro[naphthalene-1,22′-[20]oxa[13]thia[1,14]diazatetracyclo [14.7.2.0~3,6~.0~19,24~]pentacosa[8,16,18,24]tetraen]-15′-one 13′,13′-dioxide] | 10.24 | 6.45 |  |  | 
10 | CO[C@]1(CC(=O)N2CC[C@@H](N(C)C)C2)/C=C/C[C@H](C)[C@@H](C)S(=O)(=O)NC(=O)c2ccc3c(c2)N(C[C@@H]2CC[C@H]21)C[C@@]1(CCCc2cc(Cl)ccc21)CO3 [Example 100317, (1S,3′R,6′R,7′R,8′E,11′S,12′R)-6-chloro-7′-(2-((3R)-3-(dimethylamino)-1-pyrrolidinyl)-2-oxoethyl)-7′-methoxy-11′,12′-dimethyl-3,4-dihydro-2H,15′H-spiro[naphthalene-1,22′-[20]oxa[13]thia[1,14]diazatetracyclo [14.7.2.0~3,6~.0~19,24~]pentacosa[8,16,18,24]tetraen]-15′-one 13′,13′-dioxide] | 9.73 | 6.80 |  |  | 
11 | C[C@@H]1[C@@H](C)C/C=C/[C@@](O)(C#CCN2CCS(=O)(=O)CC2)[C@@H]2CC[C@H]2CN2C[C@@]3(CCCc4cc(Cl)ccc43)COc3ccc(cc32)C(=O)NS1(=O)=O [Example 100389, (1S,3′R,6′R,7′S,8′E,11′S,12′R)-6-chloro-7′-(3-(1,1-dioxido-4-thiomorpholinyl)-1-propyn-1-yl)-7′-hydroxy-11′,12′-dimethyl-3,4-dihydro-2H,15′H-spiro[naphthalene-1,22′-[20]oxa[13]thia[1,14]diazatetracyclo [14.7.2.0~3,6~.0~19,24~]pentacosa[8,16,18,24]tetraen]-15′-one 13′,13′-dioxide] | 10.00 |  | 6.94 |  | 
12 | CO[C@@]1(CN2CCN3CCCC[C@@H]3C2)/C=C/C[C@H](C)[C@@H](C)S(=O)(=O)NC(=O)c2ccc3c(n2)N(C[C@@H]2CC[C@H]21)C[C@@]1(CCCc2cc(Cl)ccc21)CO3 [Example 372, (1S,3′R,6′R,7′S,8′E,11′S,12′R)-6-chloro-7′-methoxy-11′,12′-dimethyl-7′-((9aR)-octahydro-2H-pyrido[1,2-a]pyrazin-2-ylmethyl)-3,4-dihydro-2H,15′H-spiro[naphthalene-1,22′-[20]oxa[13]thia[1,14,25]triazatetracyclo [14.7.2.0~3,6~.0~19,24~]pentacosa[8,16,18,24]tetraen]-15′-one 13′,13′-dioxide] |  |  |  | 9.76 | 7.07
13 | CO[C@@]1(CN(C)CCN2CCOCC2)/C=C/C[C@H](C)[C@@H](C)S(=O)(=O)NC(=O)c2ccc3c(c2)N(C[C@@H]2CC[C@H]21)C[C@@]1(CCCc2cc(Cl)ccc21)CO3 [Example 35, (1S,3′R,6′R,7′S,8′E,11′S,12′R)-6-chloro-7′-methoxy-11′,12′-dimethyl-7′-((methyl(2-(4-morpholinyl)ethyl)amino)methyl)-3,4-dihydro-2H,15′H-spiro[naphthalene-1,22′-[20]oxa[13]thia[1,14]diazatetracyclo [14.7.2.0~3,6~.0~19,24~]pentacosa[8,16,18,24]tetraen]-15′-one 13′,13′-dioxide] |  |  |  | 9.66 | 6.63
14 | C[C@@H]1[C@@H](C)C/C=C/[C@](C)(OCCN2CC(F)(F)C2)[C@@H]2CC[C@H]2CN2C[C@@]3(CCCc4cc(Cl)ccc43)COc3ccc(cc32)C(=O)NS1(=O)=O [Example 100484, (1S,3′R,6′R,7′S,8′E,11′S,12′R)-6-chloro-7′-(2-(3,3-difluoro-1-azetidinyl)ethoxy)-7′,11′,12′-trimethyl-3,4-dihydro-2H,15′H-spiro[naphthalene-1,22′-[20]oxa[13]thia[1,14]diazatetracyclo [14.7.2.0~3,6~.0~19,24~]pentacosa[8,16,18,24]tetraen]-15′-one 13′,13′-dioxide] | 8.41 | 5.47 |  |  | 
15 | CO[C@]1(Cc2noc(C)c2C)/C=C/C[C@H](C)[C@@H](C)S(=O)(=O)NC(=O)c2ccc3c(c2)N(C[C@@H]2CC[C@H]21)C[C@@]1(CCCc2cc(Cl)ccc21)CO3 [Example 100574, (1S,3′R,6′R,7′R,8′E,11′S,12′R)-6-chloro-7′-((4,5-dimethyl-1,2-oxazol-3-yl)methyl)-7′-methoxy-11′,12′-dimethyl-3,4-dihydro-2H,15′H-spiro[naphthalene-1,22′-[20]oxa[13]thia[1,14]diazatetracyclo [14.7.2.0~3,6~.0~19,24~]pentacosa[8,16,18,24]tetraen]-15′-one 13′,13′-dioxide] | 8.85 | 5.36 |  |  | 
